Experimental data as given in the NIST ThermoML archive (doi:10.1016/j.jct.2016.05.015).

Columns and labels:
[1] = 100 kPa, Liquid; for viscosity: Capillary tube (Ostwald / Ubbelohde) method; for speed of sound: Frequency=2 MHz, Linear variable-path acoustic interferometer; for mass density: Vibrating tube method
[2] = xn = mol fraction of the nth substance listed; conditions: 100 kPa, Liquid, x2 = 0; for viscosity: Capillary tube (Ostwald / Ubbelohde) method; for speed of sound: Frequency=2 MHz, Linear variable-path acoustic interferometer; for mass density: Vibrating tube method

Brc1ccccc1 [bromobenzene]
[1]
Conditions	mass density [kg/m3]	speed of sound [m/s]	viscosity [mPa·s]
303.15 K	1481.52	1136	0.982
308.15 K	1475.36	1122	0.953
313.15 K	1468.02	1109	0.892
318.15 K	1461.36	1099	0.848

Brc1ccccc1 [bromobenzene] + Nc1cccc(Cl)c1
[2]
Conditions	mass density [kg/m3]	speed of sound [m/s]	viscosity [mPa·s]
303.15 K	1481.52	1136	0.982
308.15 K	1475.36	1122	0.953
313.15 K	1468.02	1109	0.892
318.15 K	1461.36	1099	0.848

Clc1ccccc1 [chlorobenzene]
[1]
Conditions	mass density [kg/m3]	speed of sound [m/s]	viscosity [mPa·s]
303.15 K	1095.54	1248.2	0.712
308.15 K	1089.72	1226	0.675
313.15 K	1084.71	1206	0.634
318.15 K	1079.45	1181	0.602

Clc1ccccc1 [chlorobenzene] + Nc1cccc(Cl)c1
[2]
Conditions	mass density [kg/m3]	speed of sound [m/s]	viscosity [mPa·s]
303.15 K	1095.54	1248.2	0.712
308.15 K	1089.72	1226	0.675
313.15 K	1084.71	1206	0.634
318.15 K	1079.45	1181	0.602

O=[N+]([O-])c1ccccc1 [nitrobenzene]
[1]
Conditions	mass density [kg/m3]	speed of sound [m/s]	viscosity [mPa·s]
303.15 K	1193.45	1438	1.627
308.15 K	1188.29	1420	1.498
313.15 K	1183.69	–	1.388
318.15 K	1177.32	1385	1.275

O=[N+]([O-])c1ccccc1 [nitrobenzene] + Nc1cccc(Cl)c1
[2]
Conditions	mass density [kg/m3]	speed of sound [m/s]	viscosity [mPa·s]
303.15 K	1193.45	1438	1.627
308.15 K	1188.29	1420	1.498
313.15 K	1183.69	1402	1.388
318.15 K	1177.32	1385	1.275
